Assay results reported in ChEMBL document CHEMBL4359815, “Design, synthesis, antitumor activities and biological studies of novel diaryl substituted fused heterocycles as dual ligands targeting tubulin and katanin” (Eur J Med Chem, 2019).
pIC50, pKd: −log10 of the molar value. The source made the active and inactive calls. The rule behind the calls is not given here.

Columns and labels:
A549 [1] = assay: Induction of apoptosis in human A549 cells assessed as viable cells at 2 uM after 48 hrs by Annexin-V/propidium iodide staining based flow cytometric method (reference value: 92.05%); type: functional; settings: A549, 48 h, read-out: Activity
A549 [2] = assay: Induction of apoptosis in human A549 cells assessed as viable cells at 1 uM after 48 hrs by Annexin-V/propidium iodide staining based flow cytometric method (reference value: 92.05%); type: functional; settings: A549, 48 h, read-out: Activity
A549 [3] = assay: Antiproliferative activity against human A549 cells assessed as reduction in cell viability after 48 hrs by MTT assay; type: functional, cell-based; settings: A549, 48 h
A549 [4] = assay: Induction of apoptosis in human A549 cells assessed as viable cells at 0.5 uM after 48 hrs by Annexin-V/propidium iodide staining based flow cytometric method (reference value: 92.05%); type: functional; settings: A549, 48 h, read-out: Activity
HUVEC [5] = assay: Cytotoxicity against HUVEC after 48 hrs by MTT assay; type: cell-based; settings: Homo sapiens
HUVEC [6] = assay: Antiangiogenic activity in HUVEC assessed as inhibition of capillary like tube formation in matrigel at 0.4 uM after 24 hrs by matrigel-based inverted microscopic analysis relative to control; type: functional; settings: Homo sapiens
A549 [7] = assay: Antiproliferative activity against human A549 cells harboring katanin siRNA after 48 hrs by MTT assay; type: functional, cell-based; settings: A549, 48 h
HUVEC [8] = assay: Antiangiogenic activity in HUVEC assessed as inhibition of capillary like tube formation in matrigel at 0.2 uM after 24 hrs by matrigel-based inverted microscopic analysis; type: functional, cell-based; settings: Homo sapiens
[9] = Toxicity in Balb/c mouse xenografted with human A2780 cells assessed effect on body weight at 25 to 50 mg/kg, ip administered every other day; type: organism-based; settings: in vivo
A549 [10] = assay: Induction of apoptosis in human A549 cells assessed as late apoptotic cells at 1 uM after 48 hrs by Annexin-V/propidium iodide staining based flow cytometric method (reference value: 1.18%); type: functional
Tubulin (Homo sapiens) = Tubulin (Homo sapiens) (UniProt P68371+Q9H4B7+P0DPH7+P68366+Q13509+Q71U36+P04350+Q3ZCM7+P07437+P68363+Q9BQE3+Q6PEY2+Q13885+Q9BVA1+Q9BUF5); assay: Induction of tubulin depolymerization in human HeLa cells after 24 hrs by DAPI staining based fluorescence microscopic analysis; type: cell-based
A549 [11] = assay: Cell cycle arrest in human A549 cells after 24 hrs by RNase A/propidium iodide staining-based flow cytometric analysis; type: functional
A549 [12] = assay: Induction of apoptosis in human A549 cells assessed as early apoptotic cells at 0.5 uM after 48 hrs by Annexin-V/propidium iodide staining based flow cytometric method (reference value: 0.51%); type: functional
HCT-116 = assay: Antiproliferative activity against human HCT116 cells assessed as reduction in cell viability after 48 hrs by MTT assay; type: functional, cell-based; settings: HCT-116, 48 h
A2780 [13] = assay: Antitumour activity against human A2780 cells xenografted in Balb/c mouse assessed as reduction in tumour volume at 25 to 50 mg/kg, ip administered every other day by caliper method; type: functional, organism-based
A549 [14] = assay: Antiproliferative activity against human A549 cells harboring control siRNA after 48 hrs by MTT assay; type: functional, cell-based; settings: A549, 48 h
A549 [15] = assay: Cell cycle arrest in human A549 cells assessed as increase in p21 expression at 0.5 to 2 uM after 24 hrs by immunoblotting analysis; type: functional, cell-based
A549 [16] = assay: Induction of apoptosis in human A549 cells assessed as necrotic cells at 1 uM after 48 hrs by Annexin-V/propidium iodide staining based flow cytometric method (reference value: 6.26%); type: functional
A549 [17] = assay: Induction of apoptosis in human A549 cells assessed as PARP cleavage at 2 to 8 uM after 48 hrs by immunoblotting analysis; type: functional, cell-based
[18] = Half life in ICR mouse at 50 mg/kg, ip after 0.08 to 24 hrs by HPLC-MS/MS analysis; type: ADME, organism-based; settings: in vivo
A549 [19] = assay: Cell cycle arrest in human A549 cells assessed as increase in histone 3 phosphorylation at 0.5 to 2 uM after 24 hrs by immunoblotting analysis; type: functional, cell-based
[20] = target: Katanin p60 ATPase-containing subunit A1 (Homo sapiens) (UniProt O75449); assay: Inhibition of Katanin p60 degradation in human A549 cells preincubated for 15 mins followed by compound addition in presence of cycloheximide by immunoblotting analysis; type: cell-based
Tubulin = Tubulin (Sus scrofa, UniProt P02554+P02550); assay: (§1) Inhibition of pig brain tubulin polymerization measured every 1 min for 25 mins by spectrophotometric method
Tubulin (Sus scrofa) = Tubulin (Sus scrofa) (UniProt P02554+P02550); assay: as §1
A2780 [21] = assay: Antiproliferative activity against human A2780 cells assessed as reduction in cell viability after 48 hrs by MTT assay; type: functional, cell-based; settings: A2780, 48 h
[22] = Tmax in ICR mouse at 50 mg/kg, ip after 0.08 to 24 hrs by HPLC-MS/MS analysis; type: ADME, organism-based; settings: in vivo
A549 [23] = assay: Cell cycle arrest in human A549 cells assessed as increase in cyclin B1 expression at 0.5 to 2 uM after 24 hrs by immunoblotting analysis; type: functional, cell-based
A549 [24] = assay: Induction of apoptosis in human A549 cells assessed as increase in p53 expression level at 2 to 8 uM after 48 hrs by immunoblotting analysis; type: functional, cell-based
[25] = MRT in ICR mouse at 50 mg/kg, ip after 0.08 to 24 hrs by HPLC-MS/MS analysis; type: ADME, organism-based; settings: in vivo
[26] = Binding affinity to human katanin by MST assay
A549 [27] = assay: Induction of apoptosis in human A549 cells after 48 hrs by Annexin-V/propidium iodide staining based flow cytometric method; type: functional, cell-based
A549 [28] = assay: Cell cycle arrest in human A549 cells assessed as accumulation of cells at G2/M phase at 0.5 to 2 uM after 24 hrs by RNase A/propidium iodide staining-based flow cytometric analysis; type: functional
[29] = AUC (0 to 24 hrs) in ICR mouse at 50 mg/kg, ip after 0.08 to 24 hrs by HPLC-MS/MS analysis; type: ADME, organism-based; parameters: time < 24 hr, dose 50 mg/kg, route intraperitoneal; settings: in vivo
HeLa = assay: Antiproliferative activity against human HeLa cells assessed as reduction in cell viability after 48 hrs by MTT assay; type: functional, cell-based
A549 [30] = assay: Induction of apoptosis in human A549 cells assessed as late apoptotic cells at 2 uM after 48 hrs by Annexin-V/propidium iodide staining based flow cytometric method (reference value: 1.18%); type: functional
[31] = AUC(0 to infinity) in ICR mouse at 50 mg/kg, ip after 0.08 to 24 hrs by HPLC-MS/MS analysis; type: ADME, organism-based; parameters: dose 50 mg/kg, time infinity, route intraperitoneal; settings: in vivo
A549 [32] = assay: Induction of apoptosis in human A549 cells assessed as late apoptotic cells at 0.5 uM after 48 hrs by Annexin-V/propidium iodide staining based flow cytometric method (reference value: 1.18%); type: functional
A549 [33] = assay: Induction of apoptosis in human A549 cells assessed as early apoptotic cells at 2 uM after 48 hrs by Annexin-V/propidium iodide staining based flow cytometric method (reference value: 0.51%); type: functional
A549 [34] = assay: Induction of apoptosis in human A549 cells assessed as necrotic cells at 0.5 uM after 48 hrs by Annexin-V/propidium iodide staining based flow cytometric method (reference value: 6.26%); type: functional
A549 [35] = assay: Induction of apoptosis in human A549 cells assessed as early apoptotic cells at 1 uM after 48 hrs by Annexin-V/propidium iodide staining based flow cytometric method (reference value: 0.51%); type: functional
A549 [36] = assay: Induction of apoptosis in human A549 cells assessed as increase in Bad expression level at 2 to 8 uM after 48 hrs by immunoblotting analysis; type: functional, cell-based
[37] = Cmax in ICR mouse at 50 mg/kg, ip after 0.08 to 24 hrs by HPLC-MS/MS analysis; type: ADME, organism-based; parameters: dose 50 mg/kg, route intraperitoneal; settings: in vivo
A549 [38] = assay: Inhibition of colony formation in human A549 cells after 48 hrs by crystal violet staining based assay; type: functional, cell-based
[39] = Apparent oral clearance ICR mouse at 50 mg/kg, ip after 0.08 to 24 hrs by HPLC-MS/MS analysis; type: ADME, organism-based; settings: in vivo
A2780 [40] = assay: Antitumour activity against human A2780 cells xenografted in Balb/c mouse assessed as reduction in tumour weight at 25 to 50 mg/kg, ip administered every other day; type: functional, organism-based
[41] = Apparent volume of distribution in ICR mouse at 50 mg/kg, ip after 0.08 to 24 hrs by HPLC-MS/MS analysis; type: ADME, organism-based; settings: in vivo
A549 [42] = assay: Induction of apoptosis in human A549 cells assessed as necrotic cells at 2 uM after 48 hrs by Annexin-V/propidium iodide staining based flow cytometric method (reference value: 6.26%); type: functional

Chain of Tubulin (Sus scrofa) (P02550 whole entry, looked up): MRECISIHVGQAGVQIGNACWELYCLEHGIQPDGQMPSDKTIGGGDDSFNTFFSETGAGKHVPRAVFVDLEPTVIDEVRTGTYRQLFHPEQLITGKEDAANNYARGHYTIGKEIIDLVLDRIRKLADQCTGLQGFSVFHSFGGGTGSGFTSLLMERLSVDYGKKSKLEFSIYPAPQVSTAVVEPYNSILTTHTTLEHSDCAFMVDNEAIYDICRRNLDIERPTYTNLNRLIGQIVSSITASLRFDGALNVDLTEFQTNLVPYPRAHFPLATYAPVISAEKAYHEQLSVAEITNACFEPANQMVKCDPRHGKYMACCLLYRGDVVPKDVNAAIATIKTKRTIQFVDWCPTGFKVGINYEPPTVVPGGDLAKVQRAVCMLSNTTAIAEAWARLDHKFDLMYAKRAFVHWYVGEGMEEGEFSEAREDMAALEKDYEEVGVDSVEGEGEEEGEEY
Chain of Tubulin (Sus scrofa) (P02554 whole entry, looked up): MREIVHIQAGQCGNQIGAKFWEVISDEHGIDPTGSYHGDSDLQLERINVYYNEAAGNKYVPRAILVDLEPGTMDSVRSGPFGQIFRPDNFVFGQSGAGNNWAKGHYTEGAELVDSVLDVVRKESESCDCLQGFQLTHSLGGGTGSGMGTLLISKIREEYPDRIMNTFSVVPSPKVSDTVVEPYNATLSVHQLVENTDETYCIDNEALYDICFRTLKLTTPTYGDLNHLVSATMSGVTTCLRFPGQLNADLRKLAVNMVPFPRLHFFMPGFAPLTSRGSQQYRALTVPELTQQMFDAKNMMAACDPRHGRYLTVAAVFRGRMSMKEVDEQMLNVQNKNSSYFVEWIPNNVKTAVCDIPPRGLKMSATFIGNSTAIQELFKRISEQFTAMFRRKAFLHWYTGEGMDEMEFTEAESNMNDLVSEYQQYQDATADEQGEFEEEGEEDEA
Chain of Katanin p60 ATPase-containing subunit A1 (Homo sapiens) (O75449 whole entry): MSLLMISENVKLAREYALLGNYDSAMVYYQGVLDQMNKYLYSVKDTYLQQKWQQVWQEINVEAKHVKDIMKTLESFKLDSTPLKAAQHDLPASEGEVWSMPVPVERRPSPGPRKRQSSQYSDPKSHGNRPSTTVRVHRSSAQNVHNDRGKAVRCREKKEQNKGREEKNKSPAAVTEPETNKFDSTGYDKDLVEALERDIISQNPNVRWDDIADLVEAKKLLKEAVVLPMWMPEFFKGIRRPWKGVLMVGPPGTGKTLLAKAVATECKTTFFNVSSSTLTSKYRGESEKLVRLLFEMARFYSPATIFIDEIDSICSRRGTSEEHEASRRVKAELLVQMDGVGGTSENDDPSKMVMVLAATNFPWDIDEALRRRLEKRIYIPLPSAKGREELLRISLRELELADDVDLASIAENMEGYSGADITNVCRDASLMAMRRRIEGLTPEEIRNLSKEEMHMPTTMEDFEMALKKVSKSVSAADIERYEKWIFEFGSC

In the case of `COc1ccc(-c2cc3c([nH]c(=O)n3-c3cc(OC)c(OC)c(OC)c3)c(C(N)=O)n2)cc1O`, the viability at 2 µM (A549 [1]) was 42.2%, the viability at 1 µM (A549 [2]) was 65.1% and the pIC50 (A549 [3]) was 6.40. It also gave a viability at 0.5 µM (A549 [4]) of 79.7%, a pIC50 (HUVEC [5]) of less than 5.00 and an inhibition at 0.4 µM (HUVEC [6]) of 100%. For the same compound, the pIC50 (A549 [7]) was 5.83, the inhibition (HUVEC [8]) was “Active” and the Activity [9] was “Non-Toxic”. For the same compound, the Activity (A549 [10]) was 8.69%, the Activity (Tubulin (Homo sapiens)) was “Dose-dependent effect” and the inhibition (A549 [11]) was “Dose-dependent effect”. The Activity (A549 [12]) was 7.51%, the pIC50 (HCT-116) was 6.77 and the Activity (A2780 [13]) was “Active”. For the same compound, the pIC50 (A549 [14]) was 6.47, the Activity (A549 [15]) was “Active” and the Activity (A549 [16]) was 10.33%. The Activity (A549 [17]) was “Active”, the half-life [18] was 9.36 h and the Activity (A549 [19]) was “Active”. The inhibition [20] was “inactive”, the IC50 (Tubulin) was 8400 nM and the inhibition (Tubulin (Sus scrofa)) was “Dose-dependent effect”. The pIC50 (A2780 [21]) was 6.68, the Tmax [22] was 0.23 h and the Activity (A549 [23]) was “Active”. The Activity (A549 [24]) was “Active”, the MRT [25] was 8.39 h and the pKd [26] was 4.90. For the same compound, the Activity (A549 [27]) was “Dose-dependent effect”, the inhibition (A549 [28]) was “Active” and the AUC(0-t) at 24 h [29] was 2630 ng·h/mL. The pIC50 (HeLa) was 6.60, the Activity (A549 [30]) was 14.08% and the AUC(0-inf) [31] was 2950 ng·h/mL. The Activity (A549 [32]) was 5.43%, the Activity (A549 [33]) was 36.48% and the Activity (A549 [34]) was 7.34%. The Activity (A549 [35]) was 15.85%, the Activity (A549 [36]) was “Active” and the Cmax [37] was 580 ng/mL. The inhibition (A549 [38]) was “Dose-dependent effect”, the CL/F [39] was 5.73 mL/min and the Activity (A2780 [40]) was “Active”. The Vd/F [41] was 4625.07 mL and the Activity (A549 [42]) was 7.2%.
